Compound: CC1=CC(=CC=C1)NC2=NC(=CS2)C3=CC=NC=C3 + CS(=O)(=O)CCNCc1ccc(-c2ccc3ncnc(Nc4ccc(OCc5cccc(F)c5)c(Cl)c4)c3c2)o1 [Lapatinib] (partner 2 µM)
Test: relative viability (nuclei count vs DMSO), 5 days (fraction); higher = more cells survive
Conditions: first compound 0.08 µM
Method in brief: (§1)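 Nuclei were stained with Hoechst during a one-step fixation (final 0.05% Triton X-100, 1% formaldehyde, 1 ug/ml Hoechst) carried out 5 days after dosing, then counted on 4× images. The cells, lung cancer lines in 1536-well plates, had been dosed by pin tool the day after seeding with one drug alone or a fixed anchor-drug dose plus five library-drug doses (not always all listed) in √10 steps. Relative viability is the nuclei count in treated wells divided by that in vehicle wells, and each value is the median of duplicate plates.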

Cell Line | relative viability
NCI-H838 | 0.822
NCI-H1651 | 0.721
EBC-1 | 0.202
NCI-H1734 | 0.896
NCI-H2009 | 0.768
PC-14 | 0.295
NCI-H596 | 0.854
NCI-H2228 | 0.948
EMC-BAC-2 | 0.78
NCI-H2087 | 0.823
Calu-6 | 0.945
HCC-366 | 0.848
NCI-H1703 | 0.894
NCI-H647 | 0.958
LK-2 | 0.784
NCI-H2126 | 0.593
H3255 | 0.225
COR-L23 | 0.709
COR-L 105 | 0.289
IA-LM | 0.65
LOU-NH91 | 0.576
NCI-H358 | 0.433
NCI-H3122 | 1.05
HOP-62 | 0.94
HCC-44 | 0.757
A549 | 0.863
NCI-H1395 | 0.882
NCI-H1299 | 0.969
NCI-H1650 | 0.801
NCI-H2170 | 0.259

Same assay, conditions: first compound 0.253 µM

Cell Line | relative viability
NCI-H838 | 0.871
NCI-H1651 | 0.704
EBC-1 | 0.238
NCI-H1734 | 1.02
NCI-H2009 | 0.857
LU99A | 1.02
PC-14 | 0.258
NCI-H596 | 0.974
NCI-H2228 | 1.11
EMC-BAC-2 | 0.85
NCI-H2087 | 0.788
Calu-6 | 0.969
HCC-366 | 1.07
NCI-H1703 | 1.21
NCI-H647 | 0.977
LK-2 | 0.903

Cell Line | relative viability
NCI-H2126 | 0.667
NCI-H1793 | 0.557
H3255 | 0.325
COR-L23 | 0.878
COR-L 105 | 0.41
IA-LM | 0.503
LOU-NH91 | 0.613
NCI-H358 | 0.476
NCI-H3122 | 1.08
HOP-62 | 1.02
HCC-44 | 0.755
A549 | 0.893
NCI-H1395 | 0.733
NCI-H1299 | 0.938
NCI-H1650 | 0.735
NCI-H2170 | 0.255

Same assay, conditions: first compound 0.8 µM

Cell Line | relative viability
NCI-H838 | 0.924
NCI-H1651 | 0.865
EBC-1 | 0.204
NCI-H1734 | 1.04
NCI-H2009 | 0.978
LU99A | 1.01
PC-14 | 0.338
NCI-H596 | 0.819
NCI-H2228 | 0.884
EMC-BAC-2 | 0.839
NCI-H2087 | 0.846
Calu-6 | 0.86
HCC-366 | 1.01
NCI-H1703 | 1.19
NCI-H647 | 0.849
LK-2 | 1.09

Cell Line | relative viability
NCI-H2126 | 0.68
NCI-H1793 | 0.642
H3255 | 0.203
COR-L23 | 0.651
COR-L 105 | 0.382
IA-LM | 0.561
LOU-NH91 | 0.686
NCI-H358 | 0.554
NCI-H3122 | 1.05
HOP-62 | 1.2
HCC-44 | 0.831
A549 | 0.898
NCI-H1395 | 0.982
NCI-H1299 | 0.933
NCI-H1650 | 0.753
NCI-H2170 | 0.255

Same assay, conditions: first compound 2.53 µM

Cell Line | relative viability
NCI-H838 | 0.742
NCI-H1651 | 0.713
EBC-1 | 0.206
NCI-H1734 | 0.932
NCI-H2009 | 0.89
LU99A | 0.903
PC-14 | 0.312
NCI-H596 | 0.94
NCI-H2228 | 0.823
EMC-BAC-2 | 0.829
NCI-H2087 | 1.11
Calu-6 | 0.873
HCC-366 | 1.05
NCI-H1703 | 1.36
NCI-H647 | 0.932
NCI-H2126 | 0.594

Cell Line | relative viability
NCI-H1793 | 0.565
H3255 | 0.195
COR-L23 | 1.07
COR-L 105 | 0.408
IA-LM | 0.508
LOU-NH91 | 0.705
NCI-H358 | 0.607
NCI-H3122 | 1.09
HOP-62 | 1
HCC-44 | 0.777
A549 | 0.891
NCI-H1395 | 0.761
NCI-H1299 | 0.946
NCI-H1650 | 0.445
NCI-H2170 | 0.275

Same assay, conditions: first compound 8 µM

Cell Line | relative viability
NCI-H838 | 0.865
NCI-H1651 | 0.781
EBC-1 | 0.167
NCI-H1734 | 0.928
NCI-H2009 | 0.588
LU99A | 0.868
PC-14 | 0.292
NCI-H596 | 1.01
NCI-H2228 | 0.883
EMC-BAC-2 | 0.848
NCI-H2087 | 0.829
Calu-6 | 0.823
HCC-366 | 0.951
NCI-H1703 | 1.07
NCI-H647 | 0.917
LK-2 | 1.33

Cell Line | relative viability
NCI-H2126 | 0.572
NCI-H1793 | 0.657
H3255 | 0.211
COR-L23 | 0.881
COR-L 105 | 0.389
IA-LM | 0.572
LOU-NH91 | 0.551
NCI-H358 | 0.604
NCI-H3122 | 1.08
HOP-62 | 0.909
HCC-44 | 0.812
A549 | 0.809
NCI-H1395 | 0.818
NCI-H1299 | 0.84
NCI-H1650 | 0.176
NCI-H2170 | 0.264

Compound: CC1=CC(=CC=C1)NC2=NC(=CS2)C3=CC=NC=C3 + C[C@@H](Oc1cc(-c2cnn(C3CCNCC3)c2)cnc1N)c1c(Cl)ccc(F)c1Cl [Crizotinib] (partner 1 µM)
Test: as above
Conditions: first compound 0.08 µM
Method in brief: as §1

Cell Line | relative viability
NCI-H838 | 0.817
NCI-H1651 | 0.854
EBC-1 | 0.176
NCI-H1734 | 0.665
NCI-H2009 | 0.917
PC-14 | 0.87
LCLC-103H | 0.918
NCI-H596 | 0.875
NCI-H2228 | 0.318
EMC-BAC-2 | 0.642
NCI-H2087 | 0.895
Calu-6 | 0.698
HCC-366 | 0.346
NCI-H1703 | 0.73
NCI-H647 | 1.04
LK-2 | 0.261

Cell Line | relative viability
NCI-H2126 | 0.975
H3255 | 0.721
COR-L23 | 0.553
COR-L 105 | 0.626
IA-LM | 0.519
LOU-NH91 | 0.706
ChaGo-K-1 | 1.08
NCI-H358 | 0.509
NCI-H3122 | 0.266
HOP-62 | 0.935
HCC-44 | 0.704
A549 | 0.75
NCI-H441 | 0.751
NCI-H1299 | 0.89
NCI-H1650 | 0.946
NCI-H2170 | 1.11

Same assay, conditions: first compound 0.253 µM

Cell Line | relative viability
NCI-H838 | 0.661
NCI-H1651 | 0.869
EBC-1 | 0.218
NCI-H1734 | 0.667
NCI-H2009 | 0.97
LU99A | 0.546
PC-14 | 0.881
LCLC-103H | 0.924
NCI-H596 | 0.929
NCI-H2228 | 0.334
EMC-BAC-2 | 0.7
NCI-H2087 | 1.04
Calu-6 | 0.639
HCC-366 | 0.387
NCI-H1703 | 1.01
NCI-H647 | 0.909
LK-2 | 0.197

Cell Line | relative viability
NCI-H2126 | 1.01
H3255 | 0.926
COR-L23 | 0.483
COR-L 105 | 0.604
IA-LM | 0.581
LOU-NH91 | 0.759
ChaGo-K-1 | 1.07
NCI-H358 | 0.576
NCI-H3122 | 0.31
HOP-62 | 0.788
HCC-44 | 0.585
A549 | 0.73
NCI-H441 | 0.831
NCI-H1299 | 0.891
NCI-H1650 | 0.728
NCI-H2170 | 1.13

Same assay, conditions: first compound 0.8 µM

Cell Line | relative viability
NCI-H838 | 0.749
NCI-H1651 | 0.897
EBC-1 | 0.198
NCI-H1734 | 0.635
NCI-H2009 | 1.01
LU99A | 0.717
PC-14 | 0.821
LCLC-103H | 0.902
NCI-H596 | 0.814
NCI-H2228 | 0.4
EMC-BAC-2 | 0.717
NCI-H2087 | 0.847
Calu-6 | 0.619
HCC-366 | 0.351
NCI-H1703 | 0.683
NCI-H647 | 0.953
LK-2 | 0.229

Cell Line | relative viability
NCI-H2126 | 1
H3255 | 0.821
COR-L23 | 0.487
COR-L 105 | 0.634
IA-LM | 0.86
LOU-NH91 | 0.717
ChaGo-K-1 | 1.14
NCI-H358 | 0.562
NCI-H3122 | 0.334
HOP-62 | 0.944
HCC-44 | 0.651
A549 | 0.776
NCI-H441 | 0.791
NCI-H1299 | 0.924
NCI-H1650 | 0.83
NCI-H2170 | 1.09

Same assay, conditions: first compound 2.53 µM

Cell Line | relative viability
NCI-H838 | 0.819
NCI-H1651 | 0.851
EBC-1 | 0.17
NCI-H1734 | 0.653
NCI-H2009 | 0.939
LU99A | 0.52
PC-14 | 0.951
LCLC-103H | 1.02
NCI-H596 | 0.943
NCI-H2228 | 0.457
EMC-BAC-2 | 0.643
NCI-H2087 | 0.67
Calu-6 | 0.634
HCC-366 | 0.451
NCI-H1703 | 0.878
NCI-H647 | 1.02

Cell Line | relative viability
NCI-H2126 | 0.983
H3255 | 0.795
COR-L23 | 0.646
COR-L 105 | 0.701
IA-LM | 0.563
LOU-NH91 | 0.728
ChaGo-K-1 | 1.07
NCI-H358 | 0.542
NCI-H3122 | 0.332
HOP-62 | 0.503
HCC-44 | 0.722
A549 | 0.735
NCI-H441 | 0.69
NCI-H1299 | 0.931
NCI-H1650 | 0.919
NCI-H2170 | 1.09

Same assay, conditions: first compound 8 µM

Cell Line | relative viability
NCI-H838 | 0.682
NCI-H1651 | 0.897
EBC-1 | 0.163
NCI-H1734 | 0.622
NCI-H2009 | 0.89
LU99A | 0.718
PC-14 | 0.695
LCLC-103H | 0.888
NCI-H596 | 0.971
NCI-H2228 | 0.352
EMC-BAC-2 | 0.729
NCI-H2087 | 0.838
Calu-6 | 0.727
HCC-366 | 0.638
NCI-H1703 | 0.799
NCI-H647 | 0.86
LK-2 | 0.246

Cell Line | relative viability
NCI-H2126 | 0.846
H3255 | 0.853
COR-L23 | 0.583
COR-L 105 | 0.468
IA-LM | 0.466
LOU-NH91 | 0.693
ChaGo-K-1 | 1.15
NCI-H358 | 0.512
NCI-H3122 | 0.47
HOP-62 | 0.93
HCC-44 | 0.691
A549 | 0.627
NCI-H441 | 0.663
NCI-H1299 | 0.804
NCI-H1650 | 1.03
NCI-H2170 | 1.05

Compound: CC1=CC(=CC=C1)NC2=NC(=CS2)C3=CC=NC=C3 + C[C@]1(O)C[C@@H](c2nc(-c3ccc4ccc(-c5ccccc5)nc4c3)c3c(N)nccn32)C1 [Linsitinib] (partner 1 µM)
Test: as above
Conditions: first compound 0.08 µM
Method in brief: as §1

Cell Line | relative viability
NCI-H838 | 0.882
